Experimental data taken from US20170165322A1, “PEPTIDE AND SMALL MOLECULE AGONISTS OF EPHA AND THEIR USES IN DISEASE” (CASE WESTERN RESERVE UNIVERSITY, priority 2006, published 2017).

Columns and labels:
H460 xenograft = H460 xenograft growth in nude mice; format: in vivo, human; details: ephrin-A1-Fc 5 μg/g i.p. once every two days, five times, Alimta 150 mg/kg i.p. daily x 5 days
Procedure: FIGS. 16(A-B) illustrate, A) Systemic treatment with ephrin-A1-Fc, but not control Fc, inhibited the growth of H1975 NSCLC xenografts. Eight-week old NCR nude mice were injected with 2×10^6 H1975 cells s.c. into the hind flanks. One week later, when the tumors had reached an average of about 100 mm3, mice (5/group) were injected i.p. twice a week with Fc or ephrin-A1-Fc at 2.5 or 5.0 μg/g. Equal volume of PBS was used as control. The day of the first treatment was designated as day 1. Rapid tumor growth necessitated termination of experiment at day 18. B) Comparison between ephrin-A1-Fc and Alimta for therapeutic efficacy on H460 xenografts. Cell implantation and treatment were the same as in (A). Alimta/Pemetrexed was injected at 150 mg/kg, i.p daily×5 days), or ephrin-A1-Fc (5 μg/g, mouse, i.p, once every two days, for five times). Note ephrin-A1-Fc treatment achieved better efficacy of tumor growth inhibition than Alimta, a new drug for lung cancer therapy in this cell type. * Indicates significant difference between PBS and ephrin-A1-treated groups, p<0.05.
We next compared ephrin-A1-Fc and Alimta/Pemetrexed for therapeutic efficacy against H460 xenograft. H460 cells are derived from a lung adenocarcinoma that express moderate levels of EphA2 (not shown). […]

PP1 = details: higher concentrations; cited from earlier work
PP2A = details: low concentrations; cited from earlier work
Akt = assay: Immunoblot of p-Akt (Ser473) in DU145 cells; format: cell-based, human; details: DU145-vector, then ephrin-A1 30 min
Procedure: (§1) A Immunoblot analysis of the expression and tyrosine phosphorylation of EphA2 in DU145 cells. Parental DU145 cells were stably infected with a retroviral vector expressing wild-type EphA2 or empty vector. Clonal puromycin-resistant cells were isolated and expanded. The selected cells at 70-80% confluence were stimulated with 2 μg/ml ephrin-A1-Fc for the indicated times. The total cell lysates were resolved by SDS-PAGE and then probed with rabbit polyclonal anti-p-EphA/B and anti-EphA2 antibodies. […] The cells were treated as described in (A). Cell lysates were subject to immunoblot with the indicated antibodies.
(§2) DU145-vector cells were pretreated with okadaic acid (10, 50, and 250 nM) for 1 h, followed by stimulation with ephrin-A1-Fc for 30 min. The total cellular lysates were prepared and subjected to immunoblot analyses as described in FIG. 1 using the indicated antibodies. Notes: Okadaic acid inhibits only PP2A at low concentrations (<100 nM), but it inhibits both PP1 and PP2A at higher concentrations (>100 nM).
(§3) A. Cells were treated with rapamycin (1 nM) in the absence or presence of ephrin-A1 (2 μg/ml) for the indicated times Immunoblot analysis was performed as described above. […]

ERK1/2 = assay: Immunoblot of p-ERK1/2 in DU145 cells; format: cell-based, human; details: DU145-vector, okadaic acid pretreatment 1 h, then ephrin-A1 30 min
Procedure: as §1, §2, §3

| Structure (SMILES) | growth of H460 xenograft (H460 xenograft) | concentrations at which both PP1 and PP2A are inhibited (PP1) | concentrations at which only PP2A is inhibited (PP2A) | effect on Akt dephosphorylation induced by EphA2 activation (Akt; okadaic acid 250 nM pretreatment 1 h) | effect on Akt dephosphorylation induced by EphA2 activation (Akt; okadaic acid 10 and 50 nM pretreatment 1 h) | effects on ERK1/2 under the same conditions (ERK1/2) |
| --- | --- | --- | --- | --- | --- | --- |
| Nc1nc2[nH]cc(CCc3ccc(C(=O)N[C@@H](CCC(=O)O)C(=O)O)cc3)c2c(=O)[nH]1 [Alimta, Pemetrexed] | minimal effects |  |  |  |  |  |
| C=C1[C@@H](O)[C@@H]2O[C@]3(CC[C@H](/C=C/[C@@H](C)[C@@H]4CC(C)=C[C@@]5(O[C@H](C[C@@](C)(O)C(=O)O)CC[C@H]5O)O4)O3)CC[C@H]2O[C@@H]1[C@@H](O)C[C@H](C)[C@H]1O[C@@]2(CCCCO2)CC[C@H]1C [okadaic acid] |  | > 100 nM | < 100 nM | completely blocked | did not affect Akt dephosphorylation | not as pronounced |
